# Reference: patent US7402548B2, “Benzoxazole compounds, process for producing the same and herbicides” (Kyoyu Agri Co., Ltd., priority 2000, dated 2008)
# Assays:
# blackgrass [1] = test: Soil treatment test for upland field; format: in vivo, Alopecurus aegualis; set-up: key: 0 = normal development, 5 = all killed; details: 500 g/ha, 3 weeks, glass house 25° C.
# Protocol: (§1) The herbicidal effects are evaluated according to the following 6 ranks as compared with non-treated district. (0: normal development, 1: Less damaged, 2: Slightly damaged, 3: Moderately damaged, 4: Severely damaged, 5: All killed). Incidentally, “-” in the column means not investigated.
# (§2) Wagner pots, each having an area of 1/5000 are, were packed with Ube soil (alluvial soil), and then each seed of corn, soybean, cotton, wheat, solgum, sugar beat, Large crabgrass, barnyard grass, green foxtail, blackgrass, annual bluegrass, common lambsquarters, livid amaranth, velvetleaf, morning glory, common Cocklebur (Xanthium strumarium) and sicklepod (Cassia obtusifolia) were planted and covered with soil.
# (§3) Each wettable powder of the desired compounds (I) shown in Tables 1 to 21, 24, 25, 28 and 29 prepared in accordance with Example 2 was diluted with water containing a surfactant (0.05%) and uniformly sprayed on the surface of each soil so that an effective concentration of the compound (I) in each herbicide became 500 g/ha.
# (§4) These plants were controlled in a glass house at an average temperature of 25° C. for 3 weeks, and then herbicidal effects thereof were investigated.
# (§5) The herbicidal effects were evaluated according to the evaluation method described in the above (1).
# morning glory [2] = test: Soil treatment test for upland field; format: in vivo, Ipomoea spps.; set-up: key: 0 = normal development, 5 = all killed; details: 500 g/ha, 3 weeks, glass house 25° C.
# Protocol: as §1, §2, §3, §4, §5
# Large crabgrass [3] = test: Soil treatment test for upland field; format: in vivo, Digitaria adscendens; set-up: key: 0 = normal development, 5 = all killed; details: 500 g/ha, 3 weeks, glass house 25° C.
# Protocol: as §1, §2, §3, §4, §5
# green foxtail [4] = test: Foliar spread test for upland field; format: in vivo, Setaria viridis; set-up: key: 0 = normal development, 5 = all killed (6 ranks vs. untreated); details: foliar spray, 500 ppm, 3 weeks, glass house 25° C.
# Protocol: as §1
# (§6) Wagner pots, each having an area of 1/5000 are, were packed with volcanic ash soil and then each seed of corn, soybean, cotton, wheat, solgum, sugar beat, Large crabgrass, barnyardgrjass, green foxtail, blackgrass, annual bluegrass, common lambsquarters, livid amaranth, velvetleaf, morning glory, Xanthium pensylvanicum and Cassia obtusifolia was planted, covered with soil and grown in a glass house at an average temperature of 25° C. for about 2 weeks.
# (§7) Each wettable powder of the desired compounds (I) shown in Tables 1 to 21, 24, 25, 28 and 29 prepared in accordance with Example 2 was diluted to 500 ppm with water containing a surfactant (0.5%) and then uniformly sprayed on the above respective plants.
# (§8) After these plants were controlled in a glass house at an average temperature of 25° C. for 3 weeks, the herbicidal effects thereof were investigated.
# as §5
# blackgrass [5] = test: Foliar spread test for upland field; format: in vivo, Alopecurus aegualis; set-up: key: 0 = normal development, 5 = all killed (6 ranks vs. untreated); details: foliar spray, 500 ppm, 3 weeks, glass house 25° C.
# Protocol: as §1, §6, §7, §8, §5
# green foxtail [6] = test: Soil treatment test for upland field; format: in vivo, Setaria viridis; set-up: key: 0 = normal development, 5 = all killed; details: 500 g/ha, 3 weeks, glass house 25° C.
# Protocol: as §1, §2, §3, §4, §5
# Large crabgrass [7] = test: Foliar spread test for upland field; format: in vivo, Digitaria adscendens; set-up: key: 0 = normal development, 5 = all killed (6 ranks vs. untreated); details: foliar spray, 500 ppm, 3 weeks, glass house 25° C.
# Protocol: as §1, §6, §7, §8, §5
# livid amaranth [8] = test: Foliar spread test for upland field; format: in vivo, Amaranthus lividus; set-up: key: 0 = normal development, 5 = all killed (6 ranks vs. untreated); details: foliar spray, 500 ppm, 3 weeks, glass house 25° C.
# Protocol: as §1, §6, §7, §8, §5
# common lambsquarters [9] = test: Foliar spread test for upland field; format: in vivo, Chenopodium album; set-up: key: 0 = normal development, 5 = all killed (6 ranks vs. untreated); details: foliar spray, 500 ppm, 3 weeks, glass house 25° C.
# Protocol: as §1, §6, §7, §8, §5
# velvetleaf [10] = test: Soil treatment test for upland field; format: in vivo, Abutilon theophrasti; set-up: key: 0 = normal development, 5 = all killed; details: 500 g/ha, 3 weeks, glass house 25° C.
# Protocol: as §1, §2, §3, §4, §5
# velvetleaf [11] = test: Foliar spread test for upland field; format: in vivo, Abutilon theophrasti; set-up: key: 0 = normal development, 5 = all killed (6 ranks vs. untreated); details: foliar spray, 500 ppm, 3 weeks, glass house 25° C.
# Protocol: as §1, §6, §7, §8, §5
# annual bluegrass [12] = test: Foliar spread test for upland field; format: in vivo, Poa annua; set-up: key: 0 = normal development, 5 = all killed (6 ranks vs. untreated); details: foliar spray, 500 ppm, 3 weeks, glass house 25° C.
# Protocol: as §1, §6, §7, §8, §5
# barnyardgrjass = test: Foliar spread test for upland field; format: in vivo, Eschinochloa crusgalli; set-up: key: 0 = normal development, 5 = all killed (6 ranks vs. untreated); details: foliar spray, 500 ppm, 3 weeks, glass house 25° C.
# Protocol: as §1, §6, §7, §8, §5
# sugar beat [13] = test: Soil treatment test for upland field; format: in vivo; set-up: key: 0 = normal development, 5 = all killed; details: 500 g/ha, 3 weeks, glass house 25° C.
# Protocol: as §1, §2, §3, §4, §5
# corn [14] = test: Soil treatment test for upland field; format: in vivo; set-up: key: 0 = normal development, 5 = all killed; details: 500 g/ha, 3 weeks, glass house 25° C.
# Protocol: as §1, §2, §3, §4, §5
# solgum [15] = test: Soil treatment test for upland field; format: in vivo; set-up: key: 0 = normal development, 5 = all killed; details: 500 g/ha, 3 weeks, glass house 25° C.
# Protocol: as §1, §2, §3, §4, §5
# wheat [16] = test: Soil treatment test for upland field; format: in vivo; set-up: key: 0 = normal development, 5 = all killed; details: 500 g/ha, 3 weeks, glass house 25° C.
# Protocol: as §1, §2, §3, §4, §5
# soybean [17] = test: Soil treatment test for upland field; format: in vivo; set-up: key: 0 = normal development, 5 = all killed; details: 500 g/ha, 3 weeks, glass house 25° C.
# Protocol: as §1, §2, §3, §4, §5
# common lambsquarters [18] = test: Soil treatment test for upland field; format: in vivo, Chenopodium album; set-up: key: 0 = normal development, 5 = all killed; details: 500 g/ha, 3 weeks, glass house 25° C.
# Protocol: as §1, §2, §3, §4, §5
# morning glory [19] = test: Foliar spread test for upland field; format: in vivo, Ipomoea spps.; set-up: key: 0 = normal development, 5 = all killed (6 ranks vs. untreated); details: foliar spray, 500 ppm, 3 weeks, glass house 25° C.
# Protocol: as §1, §6, §7, §8, §5
# annual bluegrass [20] = test: Soil treatment test for upland field; format: in vivo, Poa annua; set-up: key: 0 = normal development, 5 = all killed; details: 500 g/ha, 3 weeks, glass house 25° C.
# Protocol: as §1, §2, §3, §4, §5
# sugar beat [21] = test: Foliar spread test for upland field; format: in vivo; set-up: key: 0 = normal development, 5 = all killed (6 ranks vs. untreated); details: foliar spray, 500 ppm, 3 weeks, glass house 25° C.
# Protocol: as §1, §6, §7, §8, §5
# corn [22] = test: Foliar spread test for upland field; format: in vivo; set-up: key: 0 = normal development, 5 = all killed (6 ranks vs. untreated); details: foliar spray, 500 ppm, 3 weeks, glass house 25° C.
# Protocol: as §1, §6, §7, §8, §5
# solgum [23] = test: Foliar spread test for upland field; format: in vivo; set-up: key: 0 = normal development, 5 = all killed (6 ranks vs. untreated); details: foliar spray, 500 ppm, 3 weeks, glass house 25° C.
# Protocol: as §1, §6, §7, §8, §5
# cotton = test: Foliar spread test for upland field; format: in vivo; set-up: key: 0 = normal development, 5 = all killed (6 ranks vs. untreated); details: foliar spray, 500 ppm, 3 weeks, glass house 25° C.
# Protocol: as §1, §6, §7, §8, §5
# wheat [24] = test: Foliar spread test for upland field; format: in vivo; set-up: key: 0 = normal development, 5 = all killed (6 ranks vs. untreated); details: foliar spray, 500 ppm, 3 weeks, glass house 25° C.
# Protocol: as §1, §6, §7, §8, §5
# soybean [25] = test: Foliar spread test for upland field; format: in vivo; set-up: key: 0 = normal development, 5 = all killed (6 ranks vs. untreated); details: foliar spray, 500 ppm, 3 weeks, glass house 25° C.
# Protocol: as §1, §6, §7, §8, §5
# barnyard grass = test: Soil treatment test for upland field; format: in vivo, Eschinochloa crusgalli; set-up: key: 0 = normal development, 5 = all killed; details: 500 g/ha, 3 weeks, glass house 25° C.
# Protocol: as §1, §2, §3, §4, §5
# livid amaranth [26] = test: Soil treatment test for upland field; format: in vivo, Amaranthus lividus; set-up: key: 0 = normal development, 5 = all killed; details: 500 g/ha, 3 weeks, glass house 25° C.
# Protocol: as §1, §2, §3, §4, §5
SMILES,Effects Blackgrass (blackgrass [1]),Effects Morning glory (morning glory [2]),Effects Large crabgrass (Large crabgrass [3]),Effects Green foxtail (green foxtail [4]),Effects Blackgrass (blackgrass [5]),Effects Green foxtail (green foxtail [6]),Effects Large crabgrass (Large crabgrass [7]),Effects Livid amaranth (livid amaranth [8]),Effects Common lambsquarters (common lambsquarters [9]),Effects Velvetleaf (velvetleaf [10]),Effects Velvetleaf (velvetleaf [11]),Effects Annual bluegrass (annual bluegrass [12]),Effects Barnyardgrass (barnyardgrjass),Effects Sugar beat (sugar beat [13]),Effects Corn (corn [14]),Effects Solgum (solgum [15]),Effects Wheat (wheat [16]),Effects Soybean (soybean [17]),Effects Common lambsquarters (common lambsquarters [18]),Effects Morning glory (morning glory [19]),other results
CC(=Cc1cccc(C(F)(F)F)c1)c1nc2cc(C#N)c(F)cc2o1 [I-c-135],5,4,5,5,5,5,4,5,5,5,4,5,3,5,1,1,1,2,5,5,Effects Annual bluegrass (annual bluegrass [20]): 5; Effects Sugar beat (sugar beat [21]): 5; Effects Corn (corn [22]): 2; Effects Solgum (solgum [23]): 3; Effects Sotton (cotton): 4; Effects Wheat (wheat [24]): 2; Effects Soybean (soybean [25]): 4; Effects Barnyardgrass (barnyard grass): 4; Effects Livid amaranth (livid amaranth [26]): 5
"CC/C(=C\c1cccc(C(F)(F)F)c1)c1nc2cc(Cl)ccc2o1 [I-c-55, (E)-2-(5-chlorobenzoxazol-2-yl)-1-(3-trifluoromethylphenyl)butene]",5,5,5,5,4,5,4,4,5,5,4,4,4,5,1,1,0,4,5,5,Effects Annual bluegrass (annual bluegrass [20]): 5; Effects Sugar beat (sugar beat [21]): 5; Effects Corn (corn [22]): 3; Effects Solgum (solgum [23]): 3; Effects Sotton (cotton): 4; Effects Wheat (wheat [24]): 3; Effects Soybean (soybean [25]): 5; Effects Barnyardgrass (barnyard grass): 5; Effects Livid amaranth (livid amaranth [26]): 5
CCC(=Cc1cccc(C(F)(F)F)c1)c1nc2cc(Cl)c(C)cc2o1 [I-c-131],5,5,5,4,4,5,4,5,5,5,4,4,3,5,1,3,1,1,5,5,Effects Annual bluegrass (annual bluegrass [20]): 5; Effects Sugar beat (sugar beat [21]): 4; Effects Corn (corn [22]): 3; Effects Solgum (solgum [23]): 2; Effects Sotton (cotton): 5; Effects Wheat (wheat [24]): 2; Effects Soybean (soybean [25]): 5; Effects Barnyardgrass (barnyard grass): 5; Effects Livid amaranth (livid amaranth [26]): 5
